# Earlier results in US8137922B2, “Method for diagnosing the metabolic syndrome (MS)” (Hans Dieplinger, priority 2007, dated 2012).
# Where two headings read alike, the source gives them in different places.
# Target: T1, afamin (Homo sapiens, UniProt P43652)
# T1 sequence (P43652 22-599): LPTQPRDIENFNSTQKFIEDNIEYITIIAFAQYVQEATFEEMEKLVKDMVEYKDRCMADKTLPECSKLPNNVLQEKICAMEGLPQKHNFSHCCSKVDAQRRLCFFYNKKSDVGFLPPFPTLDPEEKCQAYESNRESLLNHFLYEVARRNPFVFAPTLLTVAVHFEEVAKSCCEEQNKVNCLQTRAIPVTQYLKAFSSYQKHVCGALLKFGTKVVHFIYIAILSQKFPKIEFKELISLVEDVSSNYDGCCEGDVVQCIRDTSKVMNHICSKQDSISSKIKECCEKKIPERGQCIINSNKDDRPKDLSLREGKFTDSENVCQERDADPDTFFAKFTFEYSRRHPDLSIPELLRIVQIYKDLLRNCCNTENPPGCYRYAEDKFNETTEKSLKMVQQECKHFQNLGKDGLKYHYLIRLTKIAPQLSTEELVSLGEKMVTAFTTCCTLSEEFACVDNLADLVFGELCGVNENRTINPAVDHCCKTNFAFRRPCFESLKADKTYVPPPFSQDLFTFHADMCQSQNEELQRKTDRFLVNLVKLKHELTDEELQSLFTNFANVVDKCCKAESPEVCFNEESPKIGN
# Details: for maximum displacement of tocopherol: 2 μM afamin, 60 μM alpha-[14C]tocopherol, 100-fold excess of non-labeled competitor
Compound,maximum displacement of tocopherol [%],"Hill coefficient (calculated, indicates that afamin could bind pairs of tocopherol)","Kd (first of two binding sites, read-out: KD1, affinity of afamin for vitamin E) [µM]","Kd (second of two binding sites, read-out: KD2, affinity of afamin for vitamin E) [µM]",maximal binding (Bmax) (when both sites are activated)
Cc1c(C)c2c(c(C)c1O)CC[C@@](C)(CCC[C@H](C)CCC[C@H](C)CCCC(C)C)O2 [alpha-tocopherol],80,,,,
Cc1c(O)cc2c(c1C)O[C@](C)(CCC[C@H](C)CCC[C@H](C)CCCC(C)C)CC2 [gamma-tocopherol],80,,,,
vitamin E,,1.8,6.3,22,18 molecules of Vitamin E
